Data reported in US20100087649A1, “QUINOLINONE DERIVATIVES” (priority 2006, published 2010).

What was measured:
[1] = Cytotoxicity in mock-infected MT4 CMV-EGFP cells; type: cell-based, human; settings: human, fluorescence reduced by 50%
Excerpt: (§1) Analogously, MT4 cells are engineered with GFP and the constitutional cytomegalovirus (CMV) promotor. This cell line is designated MT4 CMV-EGFP, and can be used for the in vitro evaluation of cytotoxicity of investigational compounds. In this cell line, GFP levels are comparably to those of infected MT4 LTR-EGFP cells. Cytotoxic investigational compounds reduce GFP levels of mock-infected MT4 CMV-EGFP cells.
(§2) Effective concentration values such as 50% effective concentration (EC50) can be determined and are usually expressed in μM. An EC50 value is defined as the concentration of test compound that reduces the fluorescence of HIV-infected cells by 50%. The 50% cytotoxic concentration (CC50 in μM) is defined as the concentration of test compound that reduces fluorescence of the mock-infected cells by 50%. The ratio of CC50 to EC50 is defined as the selectivity index (SI) and is an indication of the selectivity of the anti-HIV activity of the inhibitor. The ultimate monitoring of HIV-1 infection and cytotoxicity is done using a scanning microscope. Image analysis allows very sensitive detection of viral infection. Measurements are done before cell necrosis, which usually takes place about five days after infection, in particular measurements are performed three days after infection.

[2] = system: wild-type HIV-IIIB strain; test: Antiviral analysis EGFP: anti-HIV activity in MT4 LTR-EGFP cells; type: cell-based, HIV-1; settings: fluorescence of HIV-infected cells reduced by 50%, three days after infection
Description: The compounds of the present invention were tested for anti-viral activity in a cellular assay, which was performed according to the following procedure.
The human T-cell line MT4 is engineered with Green Fluorescent Protein (GFP) and an HIV-specific promoter, HIV-1 long terminal repeat (LTR). This cell line is designated MT4 LTR-EGFP, and can be used for the in vitro evaluation of anti-HIV activity of investigational compounds. In HIV-1 infected cells, the Tat protein is produced which upregulates the LTR promotor and finally leads to stimulation of the GFP reporter production, allowing measuring ongoing HIV-infection fluorometrically.
as §2
The following Table 5 lists EC50 values, expressed in micromole/liter, against wild-type HIV-IIIB strain, for a selected number of compounds of the invention.

MT4 CMV-EGFP cells = test: Cytotoxicity in mock-infected MT4 CMV-EGFP cells; type: cell-based, human; settings: fluorescence reduced by 50%
Excerpt: as §1, §2

[3] = Human immunodeficiency virus 1, 72 h

| Compound | CC50 at 3 days [1] | EC50 [2, 3] | CC50 (MT4 CMV-EGFP cells) | EC50 [2] |
| --- | --- | --- | --- | --- |
| N#Cc1cc2ccccc2n(-c2ccc([N+](=O)[O-])cc2)c1=O [compound 1] | > 100 µM | 2.89 µM | – | – |
| Cc1c(C#N)c(=O)n(-c2ccc([N+](=O)[O-])cc2)c2ccccc12 [compound 7] | > 100 µM | 9.34 µM | – | – |
| Cn1c(=O)oc2cc(-n3c(=O)c(C#N)cc4ccccc43)ccc21 [compound 8] | > 100 µM | 12.5 µM | – | – |
| COc1ccc2cc(C#N)c(=O)n(-c3ccc([N+](=O)[O-])cc3)c2c1 [compound 9] | > 32 µM | 2.48 µM | – | – |
| N#Cc1cc2ccc(O)cc2n(-c2ccc([N+](=O)[O-])cc2)c1=O [compound 10] | > 32 µM | 13.3 µM | – | – |
| N#Cc1cc2ccc(N)cc2n(-c2ccc([N+](=O)[O-])cc2)c1=O [compound 24] | > 32 µM | 1.48 µM | – | – |
| N#Cc1cc2ccc(-n3cccc3)cc2n(-c2ccc([N+](=O)[O-])cc2)c1=O [compound 25] | 97.2 µM | 0.95 µM | – | – |
| N#Cc1cc2ccc(-n3cnnc3)cc2n(-c2ccc([N+](=O)[O-])cc2)c1=O [compound 26] | > 100 µM | 80.9 µM | – | – |
| N#Cc1cc2ccc(-n3ccnc3)cc2n(-c2ccc([N+](=O)[O-])cc2)c1=O [compound 27] | > 100 µM | 1.13 µM | – | – |
| N#Cc1cc2ccc(-c3ccccc3)cc2n(-c2ccc([N+](=O)[O-])cc2)c1=O [compound 28] | > 32 µM | 1.34 µM | – | – |
| N#Cc1cc2ccc(OP(=O)(O)O)cc2n(-c2ccc([N+](=O)[O-])cc2)c1=O [compound 70] | > 32 µM | 17.5 µM | – | – |
| N#Cc1cc2ccc(OCCNCCO)cc2n(-c2ccc([N+](=O)[O-])cc2)c1=O [compound 71] | > 32 µM | > 32 µM | – | – |
| COc1ccc2c(c1)cc(C#N)c(=O)n2-c1ccc([N+](=O)[O-])cc1 [compound 83] | > 32 µM | > 32 µM | – | – |
| COc1cc2cc(C#N)c(=O)n(-c3ccc([N+](=O)[O-])cc3)c2cc1OC [compound 93] | > 32 µM | 7.01 µM | – | – |
| N#Cc1cc2cc(O)c(O)cc2n(-c2ccc([N+](=O)[O-])cc2)c1=O [compound 94] | > 32 µM | > 32 µM | – | – |
| N#Cc1cc2cccnc2n(-c2ccc([N+](=O)[O-])cc2)c1=O [compound 99] | > 32 µM | 19.3 µM | – | – |
| N#Cc1cc2ccc(=O)[nH]c2n(-c2ccc([N+](=O)[O-])cc2)c1=O [compound 100] | > 32 µM | > 32 µM | – | – |
| N#Cc1c(N)c2ccccc2n(-c2ccc([N+](=O)[O-])cc2)c1=O [compound 101] | > 32 µM | > 32 µM | – | – |
| N#Cc1c(N)c2ccc(Cl)cc2n(-c2ccc(Cl)nc2)c1=O [compound 103] | 85.2 µM | 3.61 µM | – | – |

| Compound | CC50 at 3 days [1] | EC50 [2, 3] | CC50 (MT4 CMV-EGFP cells) | EC50 [2] |
| --- | --- | --- | --- | --- |
| N#Cc1c(N)c2ccc(Br)cc2n(-c2ccc([N+](=O)[O-])cc2)c1=O [compound 118] | > 32 µM | 0.72 µM | – | – |
| N#Cc1c(N)c2ccc(-c3cccs3)cc2n(-c2ccc([N+](=O)[O-])cc2)c1=O [compound 119] | > 100 µM | 0.52 µM | – | – |
| Cc1ccc(-n2c(=O)c(C#N)c(N)c3ccc(Br)cc32)cc1C#N [compound 121] | 55.2 µM | 0.75 µM | – | – |
| Cc1ccc(-n2c(=O)c(C#N)c(N)c3ccc(-c4ccccn4)cc32)cc1C#N [compound 123] | > 100 µM | > 100 µM | – | – |
| Cc1ccc2c(N(C)C)c(C#N)c(=O)n(-c3ccc([N+](=O)[O-])cc3)c2n1 [compound 127] | > 32 µM | 22.4 µM | – | – |
| N#Cc1c(NCCN2CCCC2)c2ccccc2n(-c2ccc([N+](=O)[O-])cc2)c1=O [compound 130] | > 100 µM | 3.71 µM | – | – |
| N#Cc1c(NCCO)c2ccccc2n(-c2ccc([N+](=O)[O-])cc2)c1=O [compound 134] | – | – | 54.6 µM | 13.5 µM |
| CNCCNc1c(C#N)c(=O)n(-c2ccc([N+](=O)[O-])cc2)c2ccccc12 [compound 135] | – | – | 53.2 µM | 3.37 µM |
| N#Cc1c(NCCCN)c2ccccc2n(-c2ccc([N+](=O)[O-])cc2)c1=O [compound 137] | – | – | 45.1 µM | 3.66 µM |
| N#Cc1c(NCCCO)c2ccccc2n(-c2ccc([N+](=O)[O-])cc2)c1=O [compound 138] | – | – | > 100 µM | 12 µM |
| CN(C)CCCNc1c(C#N)c(=O)n(-c2ccc([N+](=O)[O-])cc2)c2ccccc12 [compound 139] | – | – | 59.5 µM | 2.16 µM |
| N#Cc1c(NCCCn2ccnc2)c2ccccc2n(-c2ccc([N+](=O)[O-])cc2)c1=O [compound 140] | – | – | > 100 µM | > 100 µM |
| CC(=O)NCCNc1c(C#N)c(=O)n(-c2ccc([N+](=O)[O-])cc2)c2ccccc12 [compound 141] | – | – | > 100 µM | 32.2 µM |
| CN(C)CCNc1c(C#N)c(=O)n(-c2ccc([N+](=O)[O-])cc2)c2ccccc12 [compound 142] | – | – | 54.7 µM | 3.28 µM |
| N#Cc1c(NCC2CCNC2)c2ccccc2n(-c2ccc([N+](=O)[O-])cc2)c1=O (stereo not shown) [compound 143] | – | – | > 100 µM | 11.3 µM |
| N#Cc1c(NCCc2c[nH]cn2)c2ccccc2n(-c2ccc([N+](=O)[O-])cc2)c1=O [compound 144] | – | – | > 100 µM | 3.84 µM |
| COc1ccc2c(N)c(C#N)c(=O)n(-c3ccc(C)c(C#N)c3)c2c1 [compound 145] | > 100 µM | 3.01 µM | – | – |
| COc1ccc2cc(C#N)c(=O)n(-c3ccc(C)c(C#N)c3)c2c1 [compound 146] | > 100 µM | 4.67 µM | – | – |
| Cc1ccc(-n2c(=O)c(C#N)cc3ccc(OCCCN(C)C)cc32)cc1C#N [compound 147] | 83.9 µM | 0.85 µM | – | – |

| Compound | CC50 at 3 days [1] | EC50 [2, 3] | CC50 (MT4 CMV-EGFP cells) | EC50 [2] |
| --- | --- | --- | --- | --- |
| Cc1ccc(-n2c(=O)c(C#N)cc3ccc(OCCCN4CCCC4)cc32)cc1C#N [compound 148] | 51.5 µM | 0.64 µM | – | – |
| Cc1ccc(-n2c(=O)c(C#N)cc3ccc(Br)cc32)cc1C#N [compound 149] | > 100 µM | 2.74 µM | – | – |
| Cc1ccc(-n2c(=O)c(C#N)cc3ccc(-c4cc[nH]c4)cc32)cc1C#N [compound 150] | > 100 µM | 0.56 µM | – | – |
| CC(=O)NCc1cccc(-c2ccc3cc(C#N)c(=O)n(-c4ccc(C)c(C#N)c4)c3c2)c1 [compound 151] | – | – | > 100 µM | 2.22 µM |
| Cc1ccc(-n2c(=O)c(C#N)cc3ccc(-c4cccc(CN(C)C)c4)cc32)cc1C#N [compound 152] | – | – | 3.95 µM | 0.58 µM |
| Cc1ccc(-n2c(=O)c(C#N)cc3ccc(-c4cc[nH]n4)cc32)cc1C#N [compound 153] | – | – | > 100 µM | 0.53 µM |
| Cc1ccc(-n2c(=O)c(C#N)cc3ccc(-c4cccn4C)cc32)cc1C#N [compound 154] | – | – | > 100 µM | 10 µM |
| CC(=O)Nc1cccc(-c2ccc3cc(C#N)c(=O)n(-c4ccc(C)c(C#N)c4)c3c2)c1 [compound 155] | – | – | > 100 µM | 11 µM |
| Cc1ccc(-n2c(=O)c(C#N)cc3ccc(-c4cccc(CO)c4)cc32)cc1C#N [compound 156] | – | – | 64.9 µM | 2.58 µM |
| Cc1ccc(-n2c(=O)c(C#N)cc3ccc(NCCCN4CCCC4)cc32)cc1C#N [compound 157] | 52.7 µM | 0.89 µM | – | – |
| Cc1ccc(-n2c(=O)c(C#N)cc3ccc(-c4cccc(CNC(=O)CN(C)C)c4)cc32)cc1C#N [compound 158] | 11.5 µM | 0.21 µM | – | – |
| Cc1ccc(-n2c(=O)c(C#N)cc3ccc(-c4ccccn4)cc32)cc1C#N [compound 159] | 86 µM | 1.74 µM | – | – |
| Cc1ccc(-n2c(=O)c(C#N)cc3ccc(Cl)cc32)cc1C#N [compound 161] | – | – | > 100 µM | 6.1 µM |
| Cc1ccc(-n2c(=O)c(C#N)c(N)c3ccc(Cl)cc32)cc1C#N [compound 162] | – | – | > 100 µM | 0.87 µM |
| Cc1ccc(-n2c(=O)c(C#N)cc3ccccc32)cc1C#N [compound 163] | > 100 µM | 9.25 µM | – | – |
| Cc1ccc(-n2c(=O)c(C#N)c(NCCN)c3ccccc32)cc1C#N [compound 164] | 12.9 µM | 0.63 µM | – | – |
| CNc1c(C#N)c(=O)n(-c2ccc(C)c(C#N)c2)c2ccccc12 [compound 165] | – | – | > 100 µM | 7.94 µM |
| Cc1ccc(-n2c(=O)c(C#N)c(N)c3ccccc32)cc1C#N [compound 166] | – | – | > 100 µM | 3.01 µM |
